# Measurements as given in patent US11166972B2, “Compositions comprising nicotinamide riboside and a urolithin” (Amazentis SA, priority 2015, dated 2021).
# Test system: mitochondrial respiratory subunits proteins in C2C12 myoblasts
# Assay: Western blot of mitochondrial respiratory subunits proteins in C2C12 myoblasts (Example 6)
# Format: cell-based
# Conditions: 48 hours
# Protocol: C2C12 myoblasts were cultured in Dulbecco's modified Eagle's medium (DMEM) including 4.5 g/L glucose, 10% fetal calf serum, and 50 μg/mL gentamicin. Urolithin A (UA) was dissolved in DMSO in a stock solution of 50 mM. Nicotinamide riboside (NR) in the form of the triflate salt was dissolved in double-distilled water in a stock solution of 1 M. One hundred thousand cells were plated at time 0 hours in 6-wells plates. A total of 3 wells was used per condition (n=3 per group). Cells were treated in a volume of 2 ml for a period of 48 hours at final concentrations of (a) DMSO 0.1%, (b) 25 μM UA, (c) 0.1 mM NR, (d) 1 mM NR, (e) 25 μM UA+0.1 mM NR and (f) 25 μM UA+1 mM NR. At the end of the treatment, cells were lysed with cell lysis buffer (#9803, Cell signalling) containing protease (cOmplete™, Roche) and phosphatase inhibitor (PhosSTOP™, Roche) and applied to Invitrogen NuPage® Novex® Gel System (Bis-Tris Protein Gels −4-12%, Thermo fisher Scientific). Protein levels were examined for mitochondrial respiratory subunits, including mitochondrially encoded cytochrome c oxidase I (MTCO1), succinate dehydrogenase complex flavoprotein subunit A (SDHA) and B (SDHB), ubiquinol-cytochrome c reductase core protein II (UQCRC2) and ATP synthase, H+ transporting, mitochondrial F1 complex, alpha subunit 1 (ATP5A). The housekeeping protein tubulin-α was measured as a loading control. Detection of the proteins was performed using an Azure c300 (Azure biosystem) (FIG. 1B). Western Blot images were representative of the three biological replicates. Experiments were repeated at least 2 times. Bands were quantified using ImageJ software. The heatmap of the band intensities was drawn using GEN-E (Broad Institute) conditional formatting. Control DMSO values were set to one (FIG. 1A).
Compound,"ATP5A protein level, change vs DMSO control (NR 0.1 mM)","SDHB protein level, change vs DMSO control (NR 0.1 mM)","MT-CO1 protein level, change vs DMSO control (NR 0.1 mM, decrease (printed −≈10%))","SDHA protein level, change vs DMSO control (NR 0.1 mM, increase)","UQCRC2 protein level, change vs DMSO control (NR 0.1 mM, increase (+≈))","SDHB protein level, change vs DMSO control (NR 1 mM)","ATP5A protein level, decrease vs DMSO control (NR 1 mM, decrease) [%]","MT-CO1 protein level, change vs DMSO control (NR 1 mM, decrease (printed −≈10%))","SDHA protein level, change vs DMSO control (NR 1 mM, increase)","UQCRC2 protein level, change vs DMSO control (NR 1 mM, increase (+≈))","ATP5A protein level, change vs DMSO control (UA 25 μM alone)","MT-CO1 protein level, change vs DMSO control (UA 25 μM alone, increase)","SDHA protein level, change vs DMSO control (UA 25 μM alone, increase)","SDHB protein level, change vs DMSO control (UA 25 μM alone, increase)","UQCRC2 protein level, change vs DMSO control (UA 25 μM alone, increase)"
Nicotinamide riboside [NR],no effect,no change,≈ 10%,≈ 100%,≈ 10%,no change,20,≈ 10%,≈ 100%,≈ 10%,,,,,
"O=c1oc2cc(O)ccc2c2ccc(O)cc12 [UA, Urolithin A]",,,,,,,,,,,no change,+14%,+54%,+10%,+26%
